Assay results taken from ChEMBL document CHEMBL3826911, “Rational design and synthesis of novel anti-prostate cancer agents bearing a 3,5-bis-trifluoromethylphenyl moiety” (Bioorg Med Chem Lett, 2016).

Key:
[1] = tested on: CWR22R; assay: Antiproliferative activity against human 22Rv1 cells assessed as reduction in cell viability after 96 hrs by propidium iodide staining based fluorescence assay; type: functional
[2] = Antiproliferative activity against human DU145 cells assessed as reduction in cell viability after 96 hrs by propidium iodide staining based fluorescence assay; type: functional, DU-145
[3] = tested on: LNCaP; assay: Antiproliferative activity against human LNCAP cells assessed as reduction in cell viability after 96 hrs by propidium iodide staining based fluorescence assay; type: functional
[4] = Antiproliferative activity against human VCaP cells assessed as reduction in cell viability after 96 hrs by propidium iodide staining based fluorescence assay; type: functional
[5] = Half life in human liver microsomes at 3 uM in presence of NADPH by LC-MS/MS analysis; type: ADME
[6] = tested on: HepG2; assay: Cytotoxicity against human HepG2 cells assessed as cell viability after 72 hrs by MTT assay; type: functional, cell-based; conditions: for AC50 / minimal effective concentration: HepG2, 72 h; for minimal effective concentration: read-out: MEC
[7] = target: Albumin (Homo sapiens, UniProt P02768); assay: Binding affinity to human serum albumin at 5 uM by equilibrium dialysis based LC-MS/MS analysis; type: ADME; conditions: read-out: PB (converted)
Albumin, sequence (P02768 whole entry): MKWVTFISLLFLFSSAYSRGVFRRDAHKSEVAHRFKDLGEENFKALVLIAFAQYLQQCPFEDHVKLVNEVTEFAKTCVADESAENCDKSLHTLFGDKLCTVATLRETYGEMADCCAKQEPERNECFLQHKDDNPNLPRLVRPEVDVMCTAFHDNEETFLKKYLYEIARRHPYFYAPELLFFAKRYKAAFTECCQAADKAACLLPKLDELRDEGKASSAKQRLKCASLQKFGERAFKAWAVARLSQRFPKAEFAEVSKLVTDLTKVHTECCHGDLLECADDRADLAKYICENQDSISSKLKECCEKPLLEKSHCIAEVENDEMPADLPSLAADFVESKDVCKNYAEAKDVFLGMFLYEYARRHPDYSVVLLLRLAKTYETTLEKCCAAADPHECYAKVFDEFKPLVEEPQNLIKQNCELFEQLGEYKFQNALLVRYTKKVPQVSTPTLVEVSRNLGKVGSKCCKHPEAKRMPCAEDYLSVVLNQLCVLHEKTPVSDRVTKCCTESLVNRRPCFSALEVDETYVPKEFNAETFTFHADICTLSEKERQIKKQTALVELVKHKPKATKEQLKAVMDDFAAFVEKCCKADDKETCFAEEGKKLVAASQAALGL

[8] = target: hERG (KCNH2) (Homo sapiens, UniProt Q12809); assay: Inhibition of human ERG transfected in CHO cells assessed as blockade of tail current at 25 uM by patch clamp assay; type: cell-based; conditions: CHO cells transfected with human ERG
hERG (KCNH2), sequence (Q12809 whole entry): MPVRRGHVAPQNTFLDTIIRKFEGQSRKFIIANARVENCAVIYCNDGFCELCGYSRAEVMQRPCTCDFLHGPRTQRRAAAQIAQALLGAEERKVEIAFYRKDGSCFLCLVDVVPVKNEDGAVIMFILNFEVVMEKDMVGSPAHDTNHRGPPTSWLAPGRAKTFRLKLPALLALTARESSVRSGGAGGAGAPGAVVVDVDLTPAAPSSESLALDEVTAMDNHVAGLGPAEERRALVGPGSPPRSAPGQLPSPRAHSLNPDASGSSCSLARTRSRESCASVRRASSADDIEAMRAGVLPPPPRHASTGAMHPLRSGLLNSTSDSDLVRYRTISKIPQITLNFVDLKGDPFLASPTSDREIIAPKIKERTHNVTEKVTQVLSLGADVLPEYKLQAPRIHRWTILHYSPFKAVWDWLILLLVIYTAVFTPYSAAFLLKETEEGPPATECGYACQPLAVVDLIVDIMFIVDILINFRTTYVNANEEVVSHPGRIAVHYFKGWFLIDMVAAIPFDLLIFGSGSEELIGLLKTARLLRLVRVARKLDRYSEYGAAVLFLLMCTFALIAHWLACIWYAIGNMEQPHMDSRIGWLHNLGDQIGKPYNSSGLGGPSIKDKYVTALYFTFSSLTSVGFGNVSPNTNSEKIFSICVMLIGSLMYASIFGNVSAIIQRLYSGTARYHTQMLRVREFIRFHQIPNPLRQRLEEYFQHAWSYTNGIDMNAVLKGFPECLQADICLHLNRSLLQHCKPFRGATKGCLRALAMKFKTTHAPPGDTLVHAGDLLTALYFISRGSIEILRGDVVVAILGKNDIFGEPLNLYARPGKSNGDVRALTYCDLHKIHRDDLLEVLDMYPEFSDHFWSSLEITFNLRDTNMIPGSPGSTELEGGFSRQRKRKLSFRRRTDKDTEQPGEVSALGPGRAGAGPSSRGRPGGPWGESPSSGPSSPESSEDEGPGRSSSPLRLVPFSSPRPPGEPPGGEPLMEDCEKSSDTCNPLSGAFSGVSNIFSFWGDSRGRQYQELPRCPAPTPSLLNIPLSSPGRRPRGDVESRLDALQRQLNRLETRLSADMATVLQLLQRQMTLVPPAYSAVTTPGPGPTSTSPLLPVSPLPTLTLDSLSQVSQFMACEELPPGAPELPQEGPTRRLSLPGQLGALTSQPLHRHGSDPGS

[9] = Homo sapiens, 22Rv1, 96 h, read-out: IC50
[10] = Homo sapiens, DU-145, 96 h, read-out: IC50
[11] = Homo sapiens, LNCaP, 96 h, read-out: IC50
[12] = Homo sapiens, VCaP, 96 h, read-out: IC50

CC1(C)C(=O)N(c2ccc([N+](=O)[O-])cc2C(F)(F)F)C(=S)N1c1cc(C(F)(F)F)cc(C(F)(F)F)c1
IC50 [1, 9]: 6.97 µM
IC50 [2, 10]: 10 µM
IC50 [3, 11]: 4.67 µM
IC50 [4, 12]: 18.6 µM
half-life at 3 µM [5]: 1.19 h
Activity [6]: Dose-dependent effect
fraction unbound at 5 µM [7]: 0.001
inhibition at 25 µM [8]: 9.44%

CC(O)(COc1cc(C(F)(F)F)cc(C(F)(F)F)c1)C(=O)Nc1ccc([N+](=O)[O-])cc1C(F)(F)F (configuration not stated)
IC50 [1, 9]: 16.1 µM
IC50 [2, 10]: 11.6 µM
IC50 [3, 11]: 24 µM
IC50 [4, 12]: 23.7 µM
Activity [6]: Dose-dependent effect

CC(O)(CS(=O)(=O)c1cc(C(F)(F)F)cc(C(F)(F)F)c1)C(=O)Nc1ccc(C#N)cc1C(F)(F)F (configuration not stated)
IC50 ([1]; cwr22r): ND(Insoluble)
IC50 ([2]; du-145): ND(Insoluble)
IC50 ([3]; lncap): ND(Insoluble)
IC50 ([4]; vcap): ND(Insoluble)
Activity [6]: Dose-dependent effect

CC(O)(COc1cc(C(F)(F)F)cc(C(F)(F)F)c1)C(=O)Nc1ccc([N+](=O)[O-])c(C(F)(F)F)c1 (configuration not stated)
IC50 [1, 9]: 1.09 µM
IC50 [2, 10]: 2.9 µM
IC50 [3, 11]: 0.99 µM
IC50 [4, 12]: 1.66 µM
Activity [6]: Dose-dependent effect

CC(O)(COc1cc(C(F)(F)F)cc(C(F)(F)F)c1)C(=O)Nc1ccc(C#N)cc1C(F)(F)F (configuration not stated)
IC50 [1, 9]: 4.07 µM
IC50 [2, 10]: 8.05 µM
IC50 [3, 11]: 3.56 µM
IC50 [4, 12]: 4.77 µM
Activity [6]: Dose-dependent effect

CNC(=O)c1ccc(N2C(=S)N(c3ccc(C#N)c(C(F)(F)F)c3)C(=O)C2(C)C)cc1F [ENZALUTAMIDE]
IC50 [2, 10]: 32.3 µM
IC50 [3, 11]: 11.5 µM
IC50 [4, 12]: 53 µM
Activity [6]: Dose-dependent effect

CC(O)(CS(=O)(=O)c1cc(C(F)(F)F)cc(C(F)(F)F)c1)C(=O)Nc1ccc([N+](=O)[O-])cc1C(F)(F)F (configuration not stated)
IC50 [1, 9]: 2.41 µM
IC50 [2, 10]: 3.05 µM
IC50 [3, 11]: 3.09 µM
IC50 [4, 12]: 7.11 µM
Activity [6]: Dose-dependent effect

CC(O)(COc1cc(C(F)(F)F)cc(C(F)(F)F)c1)C(=O)Nc1ccc(C#N)c(C(F)(F)F)c1 (configuration not stated)
IC50 [1, 9]: 2.64 µM
IC50 [2, 10]: 4.7 µM
IC50 [3, 11]: 3.01 µM
IC50 [4, 12]: 2.47 µM
half-life at 3 µM [5]: 32.2 h
Activity [6]: Dose-dependent effect
fraction unbound at 5 µM [7]: 0.053
inhibition at 25 µM [8]: 7.64%

CC(O)(CSc1cccc(C(F)(F)F)c1)C(=O)Nc1cc(C(F)(F)F)cc(C(F)(F)F)c1 (configuration not stated)
IC50 [1, 9]: 9.67 µM
IC50 [2, 10]: 10 µM
IC50 [3, 11]: 8.75 µM
IC50 [4, 12]: 9.86 µM
Activity [6]: Dose-dependent effect

CC(O)(CS(=O)(=O)c1cccc(OC(F)(F)F)c1)C(=O)Nc1cc(C(F)(F)F)cc(C(F)(F)F)c1 (configuration not stated)
IC50 [1, 9]: 12.8 µM
IC50 [2, 10]: 14.1 µM
IC50 [3, 11]: 9.34 µM
IC50 [4, 12]: 9.99 µM
Activity [6]: Dose-dependent effect

CC(O)(CSc1cc(C(F)(F)F)cc(C(F)(F)F)c1)C(=O)Nc1ccc(C#N)cc1C(F)(F)F (configuration not stated)
IC50 [1, 9]: 4.65 µM
IC50 [2, 10]: 9.09 µM
IC50 [3, 11]: 7.76 µM
IC50 [4, 12]: 6.65 µM
Activity [6]: Dose-dependent effect

CNC(=O)c1ccc(N2C(=S)N(c3cc(C(F)(F)F)cc(C(F)(F)F)c3)C(=O)C2(C)C)cc1
IC50 [1, 9]: 26.4 µM
IC50 [2, 10]: 47.9 µM
IC50 [3, 11]: 11.3 µM
IC50 [4, 12]: 19.8 µM
Activity [6]: Dose-dependent effect

CC(O)(CSc1cc(C(F)(F)F)cc(C(F)(F)F)c1)C(=O)Nc1ccc(C(F)(F)F)cc1 (configuration not stated)
IC50 [1, 9]: 9.75 µM
IC50 [2, 10]: 16.4 µM
IC50 [3, 11]: 9.61 µM
IC50 [4, 12]: 9.88 µM
Activity [6]: Dose-dependent effect

N#CC(C#N)=NNc1cccc(Cl)c1 [CARBONYL CYANIDE M-CHLOROPHENYLHYDRAZONE]
AC50 [6]: 8.28 µM
minimal effective concentration [6]: 3.25 µM

CC(O)(CS(=O)(=O)c1cc(C(F)(F)F)cc(C(F)(F)F)c1)C(=O)Nc1ccc(C#N)c(C(F)(F)F)c1 (configuration not stated)
IC50 [1, 9]: 3.11 µM
IC50 [2, 10]: 5.58 µM
IC50 [3, 11]: 2.86 µM
IC50 [4, 12]: 6.21 µM
Activity [6]: Dose-dependent effect

CC1(C)C(=O)N(c2ccc(C#N)c(C(F)(F)F)c2)C(=S)N1c1cc(C(F)(F)F)cc(C(F)(F)F)c1
IC50 ([1]; cwr22r): ND(Insoluble)
IC50 ([2]; du-145): ND(Insoluble)
IC50 ([3]; lncap): ND(Insoluble)
IC50 ([4]; vcap): ND(Insoluble)
Activity [6]: Dose-dependent effect

CC(O)(CSc1cc(C(F)(F)F)cc(C(F)(F)F)c1)C(=O)Nc1ccc([N+](=O)[O-])cc1C(F)(F)F (configuration not stated)
IC50 [1, 9]: 2.29 µM
IC50 [2, 10]: 3.38 µM
IC50 [3, 11]: 3.11 µM
IC50 [4, 12]: 3.52 µM
Activity [6]: Dose-dependent effect

CN(C)CCCN1c2ccccc2Sc2ccc(Cl)cc21 [CHLORPROMAZINE]
AC50 [6]: 7.62 µM
minimal effective concentration [6]: 2.07 µM

CC1(C)C(=O)N(c2ccc(C#N)cc2C(F)(F)F)C(=S)N1c1cc(C(F)(F)F)cc(C(F)(F)F)c1
IC50 ([1]; cwr22r): ND(Insoluble)
IC50 ([2]; du-145): ND(Insoluble)
IC50 ([3]; lncap): ND(Insoluble)
IC50 ([4]; vcap): ND(Insoluble)
Activity [6]: Dose-dependent effect

CC(O)(CS(=O)(=O)c1ccccc1C(F)(F)F)C(=O)Nc1cc(C(F)(F)F)cc(C(F)(F)F)c1 (configuration not stated)
IC50 [1, 9]: 9.45 µM
IC50 [2, 10]: 11 µM
IC50 [3, 11]: 8.51 µM
IC50 [4, 12]: 8.55 µM
Activity [6]: Dose-dependent effect

CC(O)(CSc1cc(C(F)(F)F)cc(C(F)(F)F)c1)C(=O)Nc1ccc(C#N)c(C(F)(F)F)c1 (configuration not stated)
IC50 [1, 9]: 1.9 µM
IC50 [2, 10]: 2.85 µM
IC50 [3, 11]: 2.34 µM
IC50 [4, 12]: 2.73 µM
Activity [6]: Dose-dependent effect

C[C@](O)(CSc1cc(C(F)(F)F)cc(C(F)(F)F)c1)C(=O)Nc1ccc(C#N)c(C(F)(F)F)c1
IC50 [1, 9]: 1.13 µM
IC50 [2, 10]: 2.66 µM
IC50 [3, 11]: 0.79 µM
IC50 [4, 12]: 0.84 µM
half-life at 3 µM [5]: 0.108 h
AC50 [6]: 2.35 µM
minimal effective concentration [6]: 1.22 µM

CC1(C)C(=O)N(c2ccc([N+](=O)[O-])c(C(F)(F)F)c2)C(=S)N1c1cc(C(F)(F)F)cc(C(F)(F)F)c1
IC50 [1, 9]: 20.2 µM
IC50 [2, 10]: 18.1 µM
IC50 [3, 11]: 9.93 µM
IC50 [4, 12]: 28.4 µM
Activity [6]: Dose-dependent effect

CC(O)(CSc1cccc(OC(F)(F)F)c1)C(=O)Nc1cc(C(F)(F)F)cc(C(F)(F)F)c1 (configuration not stated)
IC50 [1, 9]: 6.42 µM
IC50 [2, 10]: 9.61 µM
IC50 [3, 11]: 7.76 µM
IC50 [4, 12]: 9.29 µM
Activity [6]: Dose-dependent effect

CC(O)(CS(=O)(=O)c1cccc(C(F)(F)F)c1)C(=O)Nc1cc(C(F)(F)F)cc(C(F)(F)F)c1 (configuration not stated)
IC50 [1, 9]: 10.3 µM
IC50 [2, 10]: 11.5 µM
IC50 [3, 11]: 9.5 µM
IC50 [4, 12]: 9.98 µM
Activity [6]: Dose-dependent effect

CC(O)(COc1cc(C(C)(C)C)cc(C(C)(C)C)c1)C(=O)Nc1ccc(C#N)c(C(F)(F)F)c1 (configuration not stated)
IC50 [1, 9]: 2.27 µM
IC50 [2, 10]: 3.15 µM
IC50 [3, 11]: 2.67 µM
IC50 [4, 12]: 2.98 µM
Activity [6]: Dose-dependent effect

CC(O)(CS(=O)(=O)c1ccc(F)cc1)C(=O)Nc1ccc(C#N)c(C(F)(F)F)c1 (configuration not stated)
Activity [6]: Dose-dependent effect

CC(O)(COc1cc(C(F)(F)F)cc(C(F)(F)F)c1)C(=O)Nc1ccc(C(F)(F)F)cc1 (configuration not stated)
IC50 [1, 9]: 8.49 µM
IC50 [2, 10]: 9.23 µM
IC50 [3, 11]: 3.35 µM
IC50 [4, 12]: 4.15 µM
Activity [6]: Dose-dependent effect

CC(O)(CSc1ccccc1OC(F)(F)F)C(=O)Nc1cc(C(F)(F)F)cc(C(F)(F)F)c1 (configuration not stated)
IC50 [1, 9]: 2.94 µM
IC50 [2, 10]: 6.41 µM
IC50 [3, 11]: 2.91 µM
IC50 [4, 12]: 2.9 µM
Activity [6]: Dose-dependent effect

CC(O)(CSc1ccccc1C(F)(F)F)C(=O)Nc1cc(C(F)(F)F)cc(C(F)(F)F)c1 (configuration not stated)
IC50 [1, 9]: 4.37 µM
IC50 [2, 10]: 8.66 µM
IC50 [3, 11]: 3.57 µM
IC50 [4, 12]: 3.84 µM
Activity [6]: Dose-dependent effect
